Measurements: PubChem BioAssay AID624254 (Broad Institute, 2012)
Activity calls are given as the source filed them. The rule behind the calls is not given here.

Assay: Quorum luxo inducers, light production, v cholerae bh1651 luxod47e, confirmatory dose response (AID 624254)
Conditions: V. cholerae BH1651 luxOD47E, luciferase light induction, 6 h; at 50 µM (top of the series)

| Structure (SMILES) | activation (light increase) |
| --- | --- |
| COc1ccccc1NC(=O)CN1CCN(c2ccccc2F)CC1 | inactive |
| Cc1cc(C)c(S(=O)(=O)Nc2ccccn2)c(C)c1 | inactive |
| COc1ccc(C(=O)N2CCC(C(=O)c3ccc(F)cc3)CC2)cc1 | inactive |
| COCCN(C(=O)C1CCC1)c1nnc(-c2cccnc2)s1 | inactive |
| CC1(C)NC(=O)N(CCOCCOc2ccc3ccccc3c2Br)C1=O | inactive |
| O=C(COC(=O)c1ccc(Cl)nc1)Nc1ccc2ccccc2c1 | inactive |
| Cc1ccccc1-n1ccnc1SCC(=O)NCC1CCCO1 (stereo unspecified) | inactive |
| CC(C)c1ccc(C(=O)OCC(=O)NC2CCCC2)cc1 | inactive |
| Cn1c(=O)c2c(nc(SCCN3CCOCC3)n2Cc2cccc3ccccc23)n(C)c1=O | inactive |
| COc1ccc(OCC(=O)NC2CCCN(Cc3ccc(Cl)cc3)C2)cc1 (stereo unspecified) | inactive |
| CN(CC(=O)Nc1ccc(OC(F)(F)F)cc1)C(=O)C1CCC1 | inactive |
| Cc1ccc(SCc2nc(-c3cccnc3)no2)cc1 | inactive |
| COc1ccc(S(=O)(=O)Nc2cccc(S(=O)(=O)N3CCCC3)c2)cc1OC | inactive |
| COC(=O)c1cc(COC(=O)c2ccc(OC)c(S(=O)(=O)N3CCCC3)c2)oc1C | inactive |
| O=C1C(=O)N(Cc2ccco2)C(c2cccc(Cl)c2)/C1=C(\O)c1ccc2c(c1)OCCO2 (stereo unspecified) | inactive |
| COc1ccc(Cl)cc1NC(=O)CN1CCc2ccccc2C1 | inactive |
| CCN(CCNC(=O)C1CCCN(S(=O)(=O)CC)C1)c1ccccc1 (stereo unspecified) | inactive |
| CCN(CC(=O)NCc1ccc(Cl)cc1)C(=O)CSc1ccccc1 | inactive |
| Cc1ccc(S(=O)(=O)N(C)c2nonc2C)cc1 | inactive |
| CCOC(=O)Cn1nc(C)n(-c2ccc(C(C)C)cc2)c1=O | inactive |
| O=C(Cc1ccc(-c2ccccc2)cc1)NC1CCCC1 | inactive |
| Cc1ccc(NC(=S)NCCc2c[nH]c3ccccc23)cc1 | inactive |

| Structure (SMILES) | activation (light increase) |
| --- | --- |
| O=C(COC(=O)c1ccc(Br)cc1)NC1CCCC1 | inactive |
| CN(CC(=O)Nc1ccc(F)c(F)c1F)C(=O)C1CCC1 | inactive |
| CCCc1cc(Nc2ccccc2OCC)n2ncnc2n1 | inactive |
| Cc1cccc(C(=O)NCC(c2cccs2)N2CCOCC2)c1 (stereo unspecified) | inactive |
| Cc1ccc(C)c(C(=O)CN2C(=O)NC3(CCCCCC3)C2=O)c1 | inactive |
| Cc1ccc(S(=O)(=O)N(C)C[C@H]2Oc3c(NC(=O)Nc4ccc5c(c4)OCO5)cccc3C(=O)N([C@H](C)CO)C[C@@H]2C)cc1 | inactive |
| O=C(Nc1ccc(Cl)c(Cl)c1)Nc1ccccc1C(=O)O | inactive |
| CCCn1nnnc1NCc1ccc(N(C)C)cc1 | inactive |
| COc1ccc(NC(=O)CN(C)C(=O)c2cccc(S(=O)(=O)N3CCN(C)CC3)c2)cc1 | inactive |
| O=C(NCc1ccccc1)C1CCCN(S(=O)(=O)c2cccnc2)C1 (stereo unspecified) | inactive |
| COC(=O)c1cc(NC(=O)C2CC=CCC2C(=O)O)cc(C(=O)OC)c1 (stereo unspecified) | inactive |
| CC(OC(=O)Cn1cnc2c1c(=O)n(C)c(=O)n2C)C(=O)c1ccccc1 (stereo unspecified) | inactive |
| Cc1noc(C)c1NC(=O)Nc1cccc2c1O[C@H](CN(C)S(=O)(=O)c1cccs1)[C@H](C)CN([C@H](C)CO)C2=O | inactive |
| CCCOc1cc(C)c(S(=O)(=O)NCCOC)cc1C | inactive |
| Cc1cccc(NC(=O)c2ccc(Oc3ccccc3)cc2)n1 | inactive |
| CN(c1ccccc1)S(=O)(=O)c1nnc(NC(=O)C2CCCCC2)s1 | inactive |
| CCCCc1cc2c(cc1NC(=O)CN1CCCCC1)OCCO2 | inactive |
| COC(=O)c1ccc(-c2nc3cc(Cl)c(N)cc3s2)cc1 | inactive |
| Cc1ccc(S(=O)(=O)N(C)c2ccc(OCC(=O)N3CCCCC3)cc2)cc1 | inactive |
| COc1ccc2c(c1OC)C(=O)N(c1nccs1)C2 | inactive |
| COc1cccc(CN(C)C(=O)CSC(C)C(=O)Nc2cc(C)on2)c1OC (stereo unspecified) | inactive |
| Cc1cc(NC2CCCCC2)nc(-c2ccccc2O)n1 | inactive |

| Structure (SMILES) | activation (light increase) |
| --- | --- |
| CCCCOc1ccc(NS(=O)(=O)c2cn(C)cn2)cc1 | inactive |
| C[C@@H]1CN([C@H](C)CO)C(=O)c2cccc(NC(=O)Nc3ccc4c(c3)OCO4)c2O[C@H]1CN(C)S(=O)(=O)c1ccccc1 | inactive |
| CC1CCN(c2ccccc2NC(=O)c2cc3ccccc3o2)CC1 | inactive |
| Cc1cc(C(=O)OCC(=O)Nc2c(Cl)cccc2C(F)(F)F)c(C)o1 | inactive |
| Cc1cc(C(F)(F)F)c2c(N)c(C(=O)NC3CC3)sc2n1 | inactive |
| CCc1sc(N(C(=O)Cc2ccccc2)c2ccc(F)cc2)nc1-c1ccccc1 | inactive |
| Cc1ccc2nc(SCc3nnc(-c4ccccc4Br)o3)[nH]c2c1 | inactive |
| Brc1ccc(C2=Nn3c(nnc3-c3n[nH]c4c3CCC4)SC2)cc1 | inactive |
| CCCN1CCN(C(=O)CCCNC(=O)Cn2cnc3sc(C)c(C)c3c2=O)CC1 | inactive |
| Cn1cnc(S(=O)(=O)Nc2ccc(OC(F)(F)F)cc2)c1 | inactive |
| Cc1nn(-c2ccccc2)c(C)c1NC(=O)COC(=O)c1cccc(OC(F)F)c1 | inactive |
| C[C@H](CO)N1C[C@H](C)[C@H](CN(C)S(=O)(=O)c2cccs2)Oc2c(NC(=O)C3CC3)cccc2C1=O | inactive |
| CC(C)CCN1CC(C(=O)N2CCN(c3ccc(F)cc3)CC2)CC1=O (stereo unspecified) | inactive |
| Cc1noc(C)c1COc1ccc(C(=O)NCC(c2c(F)cccc2Cl)N(C)C)cc1 (stereo unspecified) | inactive |
| O=C(COC(=O)C1CCN(c2ccc(C(F)(F)F)cn2)CC1)NC1CCCCC1 | inactive |
| COc1ccccc1NC(=O)COC(=O)c1cc(C)oc1C | inactive |
| FC(F)(F)c1nnc2sc(-c3cccs3)nn12 | inactive |
| Cn1cnc(S(=O)(=O)Nc2ccc(Oc3ccccc3)cc2)c1 | inactive |
| COc1ccccc1NC(=O)CN1CCN(C(=O)C2CCCO2)CC1 (stereo unspecified) | inactive |
| CC(C)(C)c1ccc(C(=O)OCC(=O)NC2CC2)cc1 | inactive |
| CC(=O)c1cc2c(cc1NC(=O)Cc1c(C)noc1C)OCO2 | inactive |
| O=C(CCNC(=O)c1ccc(Cl)cc1)NCC(c1ccco1)N1CCCCC1 (stereo unspecified) | inactive |

| Structure (SMILES) | activation (light increase) |
| --- | --- |
| O=S(=O)(Nc1cccc(S(=O)(=O)N2CCCCC2)c1)c1ccccc1F | inactive |
| CCN(CC)S(=O)(=O)c1cccc(C(=O)OCC(=O)C23CC4CC(CC(C4)C2)C3)c1 | inactive |
| N#CCSc1ccccc1NC(=O)COC(=O)CCNC(=O)c1ccc([N+](=O)[O-])cc1 | inactive |
| O=C(NCCS(=O)(=O)N1CCN(c2ccccc2)CC1)c1ccco1 | inactive |
| Cc1cccc(N2CCN(C(=O)C34CC5CC(CC(C5)C3)C4)CC2)c1C | inactive |
| FC(F)Oc1ccccc1NC(=S)NCc1ccco1 | inactive |
| c1ccc(-c2ccc(CN3Cc4ccccc4-n4nncc4C3)cc2)cc1 | inactive |
| CN(CC(=O)Nc1ccccc1Cl)C(=O)c1cccc(-n2cccc2)c1 | inactive |
| COc1ccc(CCNC(=O)C(=O)NCC2CCCN2S(=O)(=O)c2ccc(OC)cc2)cc1 (stereo unspecified) | inactive |
| COc1ccc(-c2nc(N)ncc2Oc2ccccc2Br)c(O)c1 | inactive |
| CCCn1nnnc1NCc1ccc(SC)cc1 | inactive |
| Cc1ccc(S(=O)(=O)N2Cc3ccccc3CC2C(=O)Nc2ccc3c(c2)OCO3)cc1 (stereo unspecified) | inactive |
| CC(C)CCOc1cccc(OCC(=O)N(C)C2CCS(=O)(=O)C2)c1 (stereo unspecified) | inactive |
| Oc1ccc(-c2cn3c(n2)SCC3)cc1 | inactive |
| Cc1ccccc1C(=O)Nc1cccc(N)c1 | inactive |
| O=C(CC1NC(=O)NC1=O)Nc1ccc(Cl)cc1 (stereo unspecified) | inactive |
| CC1(C(=O)N2CCN(c3ccc([N+](=O)[O-])cc3)CC2)CC1(Cl)Cl (stereo unspecified) | inactive |
| CCCS(=O)(=O)N1CCCC(C(=O)NCc2ccc(C)cc2)C1 (stereo unspecified) | inactive |
| Cn1nc(-c2ccc(OCC(=O)NCC3CCCO3)cc2)c2ccccc2c1=O (stereo unspecified) | inactive |
| Cc1noc(C)c1NC(=O)Nc1cccc2c1O[C@H](CN(C)S(=O)(=O)c1cccs1)[C@@H](C)CN([C@@H](C)CO)C2=O | inactive |
